In the assay the target is T1, Jagged1 (Homo sapiens, UniProt P78504).
T1 construct: gene JAG1; full-length extracellular domain (C2 to EGF16, 1277-JG-050, R&D Systems) tagged with an Fc-tag (Jagged1-Fc)
As to the kind of experiment: label-free microscale thermophoresis (MST). It is filed as binding. In general terms: MST reads how a fluorescent partner responds to local heating, with and without ligand.

Among the data in article PMC12154575, “Azvudine Suppresses Epithelial–Mesenchymal Transition in Hepatocellular Carcinoma by Targeting the Notch–HEY Signalling Pathway” (International Journal of Molecular Sciences, 2025) are Kd values, retold here.

T1 sequence (P78504 34-1067 limits assumed): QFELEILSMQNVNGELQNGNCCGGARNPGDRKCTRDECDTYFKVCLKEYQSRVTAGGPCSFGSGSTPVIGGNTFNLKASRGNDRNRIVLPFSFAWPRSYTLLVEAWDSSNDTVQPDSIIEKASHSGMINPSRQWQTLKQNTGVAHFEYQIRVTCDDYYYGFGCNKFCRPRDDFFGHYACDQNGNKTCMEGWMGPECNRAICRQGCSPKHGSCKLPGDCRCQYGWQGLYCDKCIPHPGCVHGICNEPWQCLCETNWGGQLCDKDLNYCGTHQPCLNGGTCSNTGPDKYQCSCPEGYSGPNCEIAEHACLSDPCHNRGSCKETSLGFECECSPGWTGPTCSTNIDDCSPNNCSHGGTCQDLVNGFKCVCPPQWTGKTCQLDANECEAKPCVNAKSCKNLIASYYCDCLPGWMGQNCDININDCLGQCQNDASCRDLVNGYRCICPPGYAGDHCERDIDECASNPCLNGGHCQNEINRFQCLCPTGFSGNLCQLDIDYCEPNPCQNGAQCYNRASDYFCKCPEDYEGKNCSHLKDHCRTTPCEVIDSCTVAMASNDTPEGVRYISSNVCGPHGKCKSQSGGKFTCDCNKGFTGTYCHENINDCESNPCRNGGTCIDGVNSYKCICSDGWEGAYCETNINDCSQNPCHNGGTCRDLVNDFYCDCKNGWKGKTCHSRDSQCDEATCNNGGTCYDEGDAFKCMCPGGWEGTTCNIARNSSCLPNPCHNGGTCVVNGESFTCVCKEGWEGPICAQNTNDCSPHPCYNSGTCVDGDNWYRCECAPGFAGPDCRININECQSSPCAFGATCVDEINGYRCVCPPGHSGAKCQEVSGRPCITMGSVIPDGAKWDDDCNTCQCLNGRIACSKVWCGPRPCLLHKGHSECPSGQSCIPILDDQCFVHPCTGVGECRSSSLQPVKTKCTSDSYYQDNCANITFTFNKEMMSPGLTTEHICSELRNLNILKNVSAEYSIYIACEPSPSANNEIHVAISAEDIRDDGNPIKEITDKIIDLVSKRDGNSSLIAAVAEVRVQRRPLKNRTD

As usually defined, the Kd is the equilibrium constant for the complex coming apart. A low value points to higher affinity. `[N-]=[N+]=N[C@]1(CO)O[C@@H](n2ccc(N)nc2=O)[C@@H](F)[C@@H]1O` [FNC, 2′-deoxy-2′-β-fluoro-4′-azidocytidine] showed a Kd of 28.4 ± 6.6 µM.
